Assay results reported in article PMC11508633, “In Silico Discovery of a Novel PI3Kδ Inhibitor Incorporating 3,5,7-Trihydroxychroman-4-one Targeting Diffuse Large B-Cell Lymphoma” (International Journal of Molecular Sciences, 2024).

Biological target: T1, PI3Kδ (Homo sapiens, UniProt O00329)
T1 construct: gene PIK3CD; PI3Kδ (p120δ/p85α); with p85α
Experiment: ADP-Glo kinase assay (PIP2:PS substrate, […] ATP)
Format: biochemical

T1 sequence (O00329 whole entry): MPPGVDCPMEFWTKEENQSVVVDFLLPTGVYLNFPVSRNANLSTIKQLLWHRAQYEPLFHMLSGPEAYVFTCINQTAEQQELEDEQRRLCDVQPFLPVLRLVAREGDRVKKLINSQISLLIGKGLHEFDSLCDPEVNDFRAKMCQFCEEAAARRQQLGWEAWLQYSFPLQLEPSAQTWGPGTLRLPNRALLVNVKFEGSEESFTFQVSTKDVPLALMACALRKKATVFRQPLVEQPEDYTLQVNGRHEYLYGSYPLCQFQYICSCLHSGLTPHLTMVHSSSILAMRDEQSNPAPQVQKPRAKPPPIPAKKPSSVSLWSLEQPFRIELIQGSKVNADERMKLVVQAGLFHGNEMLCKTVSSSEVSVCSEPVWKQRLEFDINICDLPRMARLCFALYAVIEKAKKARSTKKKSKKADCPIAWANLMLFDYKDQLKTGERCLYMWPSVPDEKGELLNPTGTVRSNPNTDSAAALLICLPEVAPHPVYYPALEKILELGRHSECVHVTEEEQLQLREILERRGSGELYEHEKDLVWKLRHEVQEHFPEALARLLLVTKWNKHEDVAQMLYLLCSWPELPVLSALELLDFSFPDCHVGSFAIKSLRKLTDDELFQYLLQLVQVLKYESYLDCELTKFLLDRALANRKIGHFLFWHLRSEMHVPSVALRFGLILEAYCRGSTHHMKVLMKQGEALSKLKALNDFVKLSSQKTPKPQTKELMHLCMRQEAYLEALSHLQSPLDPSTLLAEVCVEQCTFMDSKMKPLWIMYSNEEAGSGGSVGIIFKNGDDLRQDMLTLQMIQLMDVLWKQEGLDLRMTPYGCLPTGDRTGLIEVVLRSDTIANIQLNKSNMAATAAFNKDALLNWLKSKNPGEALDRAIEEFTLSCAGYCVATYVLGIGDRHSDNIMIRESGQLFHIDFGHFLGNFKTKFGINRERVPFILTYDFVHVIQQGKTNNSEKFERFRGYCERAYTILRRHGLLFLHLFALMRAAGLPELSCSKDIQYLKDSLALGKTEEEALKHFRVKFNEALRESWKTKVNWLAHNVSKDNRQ
T1 sequence (P27986 2-724 partner): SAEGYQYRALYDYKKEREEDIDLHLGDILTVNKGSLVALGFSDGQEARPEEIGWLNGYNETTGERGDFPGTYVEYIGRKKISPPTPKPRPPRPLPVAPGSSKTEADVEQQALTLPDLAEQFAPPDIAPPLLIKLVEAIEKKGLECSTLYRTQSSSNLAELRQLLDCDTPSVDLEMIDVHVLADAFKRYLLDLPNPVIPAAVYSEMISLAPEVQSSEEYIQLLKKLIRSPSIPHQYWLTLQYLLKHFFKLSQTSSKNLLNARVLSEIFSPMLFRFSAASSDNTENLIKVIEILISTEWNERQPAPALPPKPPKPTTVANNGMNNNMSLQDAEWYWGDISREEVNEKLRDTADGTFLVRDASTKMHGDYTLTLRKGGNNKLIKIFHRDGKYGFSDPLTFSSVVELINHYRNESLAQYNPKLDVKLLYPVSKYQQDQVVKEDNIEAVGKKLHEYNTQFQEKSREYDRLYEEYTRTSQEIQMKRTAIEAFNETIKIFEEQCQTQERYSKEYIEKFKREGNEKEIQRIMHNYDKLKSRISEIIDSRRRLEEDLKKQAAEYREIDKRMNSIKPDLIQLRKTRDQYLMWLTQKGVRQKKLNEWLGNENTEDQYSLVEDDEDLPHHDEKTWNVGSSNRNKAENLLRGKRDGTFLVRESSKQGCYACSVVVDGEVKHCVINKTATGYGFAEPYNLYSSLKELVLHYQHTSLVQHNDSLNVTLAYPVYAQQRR

IC50: 288 µM
SMILES: COc1cc(C2Oc3cc([C@H]4Oc5cc(O)cc(O)c5C(=O)[C@@H]4O)ccc3OC2CO)ccc1O (stereo partly shown) [Silibinin]
